Data taken from patent US20080058391A1, “NOVEL COMPOUNDS” (GLAXO GROUP LIMITED, priority 2006, published 2008).
Where a name gives a salt, the structure may show the parent alone.

Test system: male Sprague Dawley rats
Test: Rat mustard oil model of visceral pain
Assay type: in vivo
Conditions: data combined from two studies
Description: All behavioural responses consistent with the presence of pain were determined following intra rectal injection of mustard oil in male Sprague Dawley rats. Typical behavioural responses consistent with the presence of pain following intra-colonic mustard oil injection include: arching, abdominal lifting, abdominal tensing, stretching, extending the rear leg (when lying down), raising and lowering the testicles, tip-toeing and writhing.
Male Sprague Dawley rats (130 g-160 g) were briefly sedated with 50% oxygen/50% carbon dioxide and 0.2 ml of 3% mustard oil injected into the colorectum, 1.5 cm from the anus. The anus was plugged with vaseline and animals placed in observational cages to which they had previously been acclimatised for 45 minutes prior to mustard oil injection. The number of visceral pain related behaviours, which consisted primarily of abdominal arching, were counted over a 25 minute period and the animals culled by cervical dislocation.
In separate studies, the effects of alosetron (0.1, 0.3 and 1.0 mg/kg n=10 per group), gabapentin (10, 30 and 100 mg/kg n=10 per group) and amitriptyline (3, 10 and 30 mg/kg n=9-10 per group) or vehicle (saline for alosetron and amitriptyline 10% 1-methyl-2-pyrolidone in saline for gabapentin n=10 per study) given sub cutaneously 15 minutes prior to injection of 3% mustard oil were examined on pain behaviour. Results are expressed as mean reduction in percentage of behaviours compared to vehicle treated animals and were statistically compared to vehicle treated animals using a one way ANOVA with Dunnett's comparison, p<0.05 considered significant.
The effect of the compound of Example 1 (0.1, 0.3, 1.0, 3.0, 10 and 30 mg/kg, n 9-20 per dosage) or vehicle (1% methyl cellulose, n=20) given orally 60 minutes prior to injection of mustard oil (3% mustard oil, 70% ethanol in saline) were examined on pain behaviour. The total number of visceral pain related behaviours, which consisted primarily of abdominal arching, were counted over a 25 minute period and the animals culled by cervical dislocation. Behaviours were normalised as the percentage of the vehicle group mean and expressed as mean percentage reductions. Data was combined from two studies and normalised as the percentage of the vehicle group mean for each individual study and expressed as a mean percentage reduction for both studies. Percentage reduction of behaviours compared to vehicle treated animals were analysed statistically using a one way ANOVA with Dunnett's comparison, p<0.05 considered significant.

Question: Which results are given for `CC(C)(NCc1cc(-c2ccc(C(F)(F)F)cc2)ccn1)C(N)=O` [Example E1, 2-Methyl-N^2-({4-[4-trifluoromethyl)phenyl]-2-pyridinyl}methyl)alaninamide hydrochloride]?
Answer: reduction in behaviours compared to vehicle treated animals (0.1 mg/kg orally 60 minutes prior to mustard oil): 16%; reduction in behaviours compared to vehicle treated animals (0.3 mg/kg orally 60 minutes prior to mustard oil): 24%; reduction in behaviours compared to vehicle treated animals (1.0 mg/kg orally 60 minutes prior to mustard oil): 41%; reduction in behaviours compared to vehicle treated animals (3.0 mg/kg orally 60 minutes prior to mustard oil): 64%; reduction in behaviours compared to vehicle treated animals (10 mg/kg orally 60 minutes prior to mustard oil): 76%; reduction in behaviours compared to vehicle treated animals (30 mg/kg orally 60 minutes prior to mustard oil): 85%
